Values quoted from earlier work as cited in publication PMC11291853, “Haemodynamic, hormonal and renal actions of osteocrin in normal sheep” (Experimental Physiology, 2024).

Experiments:
[1] = system: people; parameters: method as in Hirata et al., 1990; conditions: exogenous ANP infusions achieving plasma concentrations of ∼150 pmol/L, ref Hirata et al., 1990; cited from earlier work
[2] = sheep; at comparable circulating concentrations (∼30 pmol/L); ref Charles, Espiner, Richards et al., 1996; cited from earlier work
Description: To our knowledge, the metabolism of the 5 kDa OSTN has not been studied previously in vivo. […] Consistent with this is the longer half‐l ...

[3] = molecular target: NPR-C; conditions: purified ovine lung tissue membranes; ref Smith et al., 2000; read-out: K d, binding affinity to NPR-C; cited from earlier work
Method: Actions of OSTN on muscle cells (Subbotina et al., [2015]) and cartilage/bone (Moffatt et al., [2007]; Thomas et al., [2003]) have been studied, whereas few reports have examined the impact of the peptide on plasma concentrations of NPs and on cardiovascular and renal tissues. A crucial issue is the ability of OSTN, in tissues and in plasma, to impact NP concentrations in health or disease. In mice, constant infusion of the 10 kDa peptide [proOSTN (30–130)] at doses of 10 μg/kg/min (∼1000 pmol/kg/min) increased endogenous plasma ANP (by ∼15 pmol/L), similar to increments evoked by administrati ...

For ANP: atrial natriuretic peptide, the “Increase in nephrogenous cGMP” value [1] is listed as 10 fold, the “Clearance rate (MCR)” value [2] is listed as 5.7 L/min and the Kd [3] is listed as 0.008 to 0.016 nM.
